From EP3685668B1, “COMPOSITION COMPRISING ACIBENZOLAR-S-METHYL AS EFFECTIVE INGREDIENT FOR CONTROLLING BURSAPHELENCHUS XYLOPHILUS DISEASE AND METHOD FOR CONTROLLING BURSAPHELENCHUS XYLOPHILUS USING SAME” (Industry Foundation of Chonnam National University, priority 2017, dated 2019)

How the values were obtained:
[1] = system: induced resistance-related genes; assay: qRT-PCR expression of induced resistance genes in pine tree callus, overall statement; format: cell-based; details: 200 µg/mℓ
Method: For in vitro analysis of induced resistance, the expression of PR genes and other plant defense-related genes was determined, which are evolved in various defense mechanisms including induced resistance. The primers of sixteen induced resistance-related genes of pine tree used in this invention were listed in the below and elongation factor_1 alpha were used as a reference gene. [Table 4] The primer list of defense resistance-related genes
After the treatment with 200 µg / mℓ of candidates of the selected induced resistance material, expression of the induced resistance-related gene in pine callus was determined by qRT-PCR using the primer pairs of defense resistance-related genes in Table 4. As a candidate group of an induced resistance material in pine tree, acibenzolar-S-methyl (ASM), TDL (Tiadinil), ITL (Isotianil), PBZ (Probenzole), AZO (Azoxystrobin), VMA (Validamycin A), MeJA (Methyl jasmonate), BABA (DL-3-aminobutyric acid), 2,3-BDO (2,3-Butanediol), GABA (r-Aminobutyric acid), glucan (Glucan), ER (Ergosterol), and AZA (Azelaic acid) were used. For the in vitro analysis of the expression of induced resistance gene in pine callus, the selected induced resistance materials were applied with 500 µℓ of LM liquid medium on a surface of pine tree callus (100 mg) in 12-well microplate to give final concentration of 200 µg/mℓ. Then, the callus surface was sufficiently reacted for 24 hours with the candidate of pine tree induced resistance material by shaking at 50 rpm in a 25 °C shaking incubator under dark condition. RNAs were extracted from the callus after completion of the reaction with an induced resistance material, followed by synthesis of cDNAs. Then, by carrying out qRT-PCR, the expression of induced resistance genes was determined. [Table 5] Expression of induced resistance gene in pine tree callus by TDL, PBZ, ASM, ITL, AZO, VMA, glucan, and AZA

Xyloglucan = assay: qRT-PCR expression of induced resistance gene in pine tree callus; format: cell-based; details: concentration series
Heat shock 70 = assay: as above; format: cell-based; details: concentration series, 2 µg/mℓ
PR_3 family class 1 = assay: as above; format: cell-based; details: concentration series, 2 µg/mℓ
PR_2 family = assay: as above; format: cell-based; details: concentration series, 2 µg/mℓ
Antipeptide = assay: as above; format: cell-based; details: concentration series
[2] = system: Bursaphelenchus xylophilus; assay: In vitro nematicidal activity, 96-well microplate; details: after 3 days
Method: To test the nematicidal activity of acibenzolar-S-methyl, a suspension of Bursaphelenchus xylophilus was diluted in a 96-well microplate to have 50 worms/99 µℓ in each well and used for the treatment. […] Each treatment was repeated 3 times, and "A Pharm" (emamectin benzoate, 2.15%), which is a chemical pesticide, was used as a control group. After the treatment, the 96-well plate was kept in a plastic box having water-soaked wipes spread on the bottom to maintain 100% humidity, and, after covering the box with black cloth, the box was stored in a dark state with blockage of light. The observation was made after 3 days. […] [Table 2] Nematicidal activity of acibenzolar-S-methyl against Bursaphelenchus xylophilus

PR_1b family = assay: qRT-PCR expression of induced resistance gene in pine tree callus; format: cell-based; details: concentration series
[3] = system: Bursaphelenchus xylophilus; assay: Control efficacy against pine wilt disease by trunk injection, foliar spraying or soil drenching, greenhouse, red pine trees; format: in vivo; details: red pine tree, observed for 80 days
Method: The control efficacy of acibenzolar-S-methyl, which shown to have the highest activity in Example 1, was determined by three different treatment methods, i.e., trunk injection, foliar spraying, and soil drenching. For in vivo pathogenesis test, 2-year old young red pine trees (diameter of 5.5 mm or so, and height of about 35 mm) were used like Example 2.
For the trunk injection, a borehole was created at an angle of 45° by using an electric drill with thickness of 1.5 mm on a pine stem part that is 5 to 10 cm above the soil surface, a tip (200 µℓ) was inserted to the hole, and the working solution of chemicals was injected in an amount of 100 µℓ per pine tree after dissolving acibenzolar-S-methyl at concentration of 0.2 or 10 mg/mℓ in an aqueous solution containing 10% acetone and 10% methanol. After the treatment, the end part of the tip was sealed with parafilm, and a small hole was created thereon as an airflow hole. For the foliar spraying, a pre-treatment with Tween 20 (250 µg/mℓ) was carried out at 5 mℓ per pine tree to help the adsorption of the chemical on pine leaves, followed by drying for 2 hours. After drying, acibenzolar-S-methyl was dissolved at concentration of 1.6 mg/mℓ in an aqueous solution containing 10% acetone and Tween 20 (250 µg/mℓ) and the dissolved solution was filled in microsprayer and was applied 5 mℓ per pine tree by foliar spraying. For the soil drenching, acibenzolar-S-methyl was dissolved at concentration level of 0.2 mg/mℓ in an aqueous solution containing 10% acetone and Tween 20 (250 µg/mℓ), and this solution was used for soil drenching in a pot with planted pine tree, 40 mℓ per pine tree. […] [Table 3] The control efficacy of acibenzolar-S-methyl against pine wilt disease by various treatment methods

[4] = Foliar spraying, 1,600 µg/mℓ, 5 mℓ per tree
[5] = Soil drenching, 200 µg/mℓ, 40 mℓ per tree

NCCCC(=O)O [GABA, r-Aminobutyric acid]
expression of induced resistance-related genes is induced overall [1]: ≥ 2 times

OCC1=C[C@@H](N[C@H]2C[C@H](CO)[C@@H](O[C@H]3O[C@@H](CO)[C@H](O)[C@@H](O)[C@@H]3O)[C@H](O)[C@H]2O)[C@H](O)[C@@H](O)[C@@H]1O [VMA, Validamycin A]
expression of induced resistance-related genes is induced overall [1]: ≥ 2 times

CSC(=O)c1cccc2nnsc12 [ASM, acibenzolar-S-methyl]
Gene expression level, Xyloglucan (Xyloglucan; 2 µg/mℓ): 7.013 | Gene expression level, Xyloglucan (Xyloglucan; 20 µg/mℓ): 5.389 | Gene expression level, Heat shock 70 (Heat shock 70): 22.47 | Gene expression level, PR_3 family class 1 (PR_3 family class 1): 3.945 | Gene expression level, PR_2 family (PR_2 family): 1.828 | expression of induced resistance-related genes is induced overall [1]: ≥ 2 times | expression of most PR genes was enhanced [1]: ≥ 2 times | Gene expression level, Antipeptide (Antipeptide; 2 µg/mℓ): 5.816 | Gene expression level, Antipeptide (Antipeptide; 20 µg/mℓ): 7.111 | Nematicidal rate (%) ([2]; 33.3 µg/mℓ): 1.72% | Nematicidal rate (%) ([2]; 100 µg/mℓ): 1.94% | Nematicidal rate (%) ([2]; 300 µg/mℓ): 2.24% | nematicidal activity ([2]; second stage larvae, 300, 100 or 33.3 µg/mℓ): no nematicidal activity | Gene expression level, PR_1b family (PR_1b family; 2 µg/mℓ): 1.064 | Gene expression level, PR_1b family (PR_1b family; 20 µg/mℓ): 1.248 | Control value (%) [3, 4]: 61% | Disease occurrence rate (%) [3, 4]: 28% | Control value (%) [3, 5]: 97% | Disease occurrence rate (%) [3, 5]: 2% | Control value (%) ([3]; Trunk injection, 200 µg/mℓ): 77% | Disease occurrence rate (%) ([3]; Trunk injection, 200 µg/mℓ): 16% | Control value (%) ([3]; Trunk injection, 10,000 µg/mℓ): 27% | Disease occurrence rate (%) ([3]; Trunk injection, 10,000 µg/mℓ): 52%
